TGI data for 14 compounds are collected here from PubChem BioAssay (NCI).

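Compound exposure: 48 hours, 5 concentrations, 96-well plates. Definition used: TGI = concentration required for complete inhibition of growth.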 A value given as a limit tells only on which side of the number the result lay.

What all share (experiment): NCI anticancer screen, dose series, 48 h
Experiment [1] has as its system NCI-H23 lung.
In experiment [2] the test system is UO-31 renal.
For experiment [3], the system named is HL-60(TB) leukemia.
The test system of experiment [4] is SK-MEL-28 melanoma.
Experiment [5] relates to SW-620 colon.
In experiment [6] the test system is MOLT-4 leukemia.
In experiment [7] the test system is HCT-116 colon.
Experiment [8] deals with DU-145 prostate.
Experiment [9] relates to NCI-H522 lung.
The subject of experiment [10] is OVCAR-8 ovarian.
In experiment [11] the test system is HOP-62 NSCLC.

Regarding `CO/N=C1/C(n2[nH]c(=O)n(-c3ccccc3)c2=O)C2C=CC1n1c(=O)n(-c3ccccc3)c(=O)n12` (stereo not drawn), the TGI in experiment [1], in [2], in [3], in experiment [4], in experiment [5] and in experiment [6] was more than 100 µM throughout. The TGI in experiment [7], in experiment [8], in experiment [9] and in experiment [10] was more than 100 µM each time.

As for `Cn1c2c(c3ccccc31)CC(=O)N1CCCCC1C21OCCO1` (stereo not drawn), the TGI in [1], in [2], in [4], in experiment [5], in experiment [6] and in experiment [7] was more than 100 µM each time. Moreover, the TGI in experiment [8], in [11] and in experiment [10] was more than 100 µM in each case.

In the case of `CCCCCC(/C=N/NC(N)=S)C(O)(C(F)(F)F)C(F)(F)F` (stereo not drawn), the TGI in experiment [1], in experiment [4], in experiment [5], in [6], in [7] and in experiment [8] was more than 10 µM in each case. The TGI in experiment [11], in [9] and in experiment [10] was more than 10 µM in each case.

For the compound `CC(C)(C)OC(=O)/C=C/C(=O)O/C=C/[N+](=O)[O-]`, the TGI in experiment [1], in experiment [2], in experiment [5], in experiment [7], in experiment [8] and in experiment [11] was more than 100 µM throughout. Besides, the TGI in experiment [9] and in experiment [10] was more than 100 µM in each case.

For `N#Cc1nc(Cc2ccccc2)oc1N`, the TGI in experiment [1], in experiment [2], in experiment [4], in experiment [5], in experiment [6] and in experiment [7] was more than 100 µM in each case. Further, the TGI in [8] and in experiment [11] was more than 100 µM each time.

In the case of `CC1(C)OC[C@@]2([C@@H]3CC[C@@H](C3)C2(C)C)N1O`, the TGI in [1], in experiment [3], in [4], in [5], in experiment [6] and in experiment [7] was more than 100 µM throughout. The TGI in [8], in experiment [11], in [9] and in [10] was more than 100 µM in each case.

As to `O=S(=O)(O)Nc1ccc(-c2nc3ccccc3s2)cc1Cl`, the TGI in experiment [1], in experiment [2], in experiment [3], in [4], in experiment [5] and in experiment [7] was more than 100 µM throughout. The TGI in [8], in experiment [11], in [9] and in [10] was more than 100 µM in each case.

On to `CSc1cc(Cl)c(C)cc1S(=O)(=O)NC(=O)NNc1ccccn1`, for which the TGI in [4], in [5], in experiment [6], in experiment [7], in experiment [8] and in experiment [11] was more than 100 µM throughout. Further, the TGI in experiment [9] and in experiment [10] was more than 100 µM in each case.

`COC(=O)[C@H]1ON2O[C@@H](O[C@H]3CCCC[C@@H]3C(C)(C)c3ccccc3)C[C@@H]3CC[C@H]1[C@@]32C`: the TGI in experiment [1], in [2], in experiment [3], in experiment [5], in [6] and in experiment [7] was more than 100 µM in each case. Moreover, the TGI in [8], in experiment [11], in experiment [9] and in [10] was more than 100 µM in each case.

`O=[N+]([O-])C(=C/C1CCCCC1)/C(=C\C1CCCCC1)[N+](=O)[O-]`: the TGI in experiment [1] is 10.1 µM; in experiment [2], 22.4 µM; in experiment [4] it was 24.7 µM; in experiment [5], 17.4 µM; in [6], more than 26.1 µM; in experiment [7], 17.7 µM. For the same compound, the TGI in [8] is 26.7 µM; in experiment [11], 19.1 µM; in experiment [9] it was 4.3 µM; in experiment [10], more than 27.3 µM.

Regarding `CCOC(=O)/C=C/[C@H](O[Si](c1ccccc1)(c1ccccc1)c1ccccc1)C(C)(C)C`, the TGI in [1] is more than 31.6 µM; in experiment [2], more than 31.6 µM; in experiment [3], more than 100 µM; in experiment [5], more than 31.6 µM; in experiment [6] it was more than 31.6 µM; in experiment [7], more than 31.6 µM. Also, the TGI in [8], in [11], in [9] and in [10] was more than 31.6 µM each time.

Consider `FC(F)(F)C1(C(F)(F)F)OC(Cl)(Cl)C(Cl)(Cl)O1`, for which the TGI in experiment [1], in experiment [4], in experiment [5], in [7], in experiment [8] and in experiment [11] was more than 10 µM in each case. Besides, the TGI in [9] and in experiment [10] was more than 10 µM throughout.

In the case of `COc1ccc(/C=N/n2c(C)n[nH]c2=O)cc1`, the TGI in [1], in experiment [2], in experiment [4], in [5], in experiment [6] and in experiment [7] was more than 100 µM throughout. The TGI in [8], in [11] and in experiment [10] was more than 100 µM each time.

In the case of `O=C(/C(Cl)=C/c1ccccc1)c1ccccc1`, the TGI in [1] was 26 µM; in experiment [2], 5.49 µM; in experiment [4], 6.06 µM; in experiment [6], more than 21.3 µM; in experiment [7] it was 2.78 µM; in experiment [8] it was 29.8 µM. Besides, the figures for the TGI in [11], in [9] and in [10] were 41.5 µM, 3.76 µM and 17.1 µM, respectively.
